Patent US9221900B2, “Methods for identifying safe and functional humanized antibodies” (AC IMMUNE S.A., priority 2010, dated 2015)

What was measured:
enriched microglia = assay: TNFα release by enriched microglia; assay type: cell-based, rat; settings: 24 h of treatment
Experimental: FIG. 6 provides a graph corresponding to the experiments described in Example 6.6. […] The release of TNFα by enriched microglia was measured following 24 h of treatment (see Methods). The mean (±SEM) of three independent experiments is shown. Statistical analysis was done using one-way ANOVA followed by Tukey post-hoc multiple comparison.
To link the increased microglia activity more directly to a downstream pro-inflammatory readout, the TNFα release by primary cell cultures enriched for microglia was measured ([…] Iba1^+, not shown). The release of pro-inflammatory TNFα by enriched microglia when treated with Aβ1-42 oligomers was reduced in the presence of all anti-Aβ monoclonal antibodies tested (FIG. 6). […] Thus, an anti-Aβ IgG4 monoclonal antibody may have a more desirable profile as compared to an anti-Aβ IgG1 monoclonal antibody, combining neuroprotective effects and ability to promote Aβ engulfment by microglia with limited microglial activation.
Rat cortical cultures enriched for microglia (>60% Iba1^+ of total DAPI^+ cells) were treated with 10 μM Aβ1-42 oligomers with or without 100 μg/mL antibodies for 6 h and 24 h. LPS (Sigma) at 1 μg/mL was used as a positive control stimulus. […]

[1] = tested on: mouse embryonic cortical neurons; assay: Aβ1-42-induced degeneration of embryonic cortical neurons, TuJ1 immunofluorescence; assay type: cell-based; settings: Aβ1-42 with MABT for four days
Experimental: FIG. 2 provides graphs and immunocytochemical images corresponding to the experiments described in Example 6.3. […] An MTT assay was used to determine cell viability as described in the Methods section. The means (±SEM) of five independent experiments are shown. *P<0.05, **P<0.01. […] Neurotoxicity following extended Aβ1-42 oligomer treatment was tested by morphological analyses (C).
A non-specific IgG monoclonal antibody was used as a control in all experiments.
The cytotoxicity of Aβ1-42 oligomers was tested on mixed cortical cultures at DIV 5. All antibodies, at a final concentration of 100 μg/mL, were co-incubated with Aβ1-42 oligomers for 30 min in serum-free cell culture medium at 37° C. before treatment of cells. For some experiments, mixed cortical cultures were pre-treated for 1 h with 1 μM SB239063, a potent second-generation p38 inhibitor, before treatment with Aβ1-42 oligomers. […] Briefly, for the last 3 h of treatment, cells grown in 96-well plates (Costar) were incubated with the MTT dye solution and the generation of a blue formazan product was measured by reading absorbance at 570 and 690 nm using a plate reader (Tecan). […] A FITC-labeled secondary antibody was used to visualize microtubules using fluorescence microscopy.

[2] = tested on: primary cortical cultures; assay: Intracellular Aβ1-42 accumulation ELISA on trypsin-cleared cells; assay type: cell-based, rat
Experimental: FIG. 3 provides graphs and immunocytochemical images corresponding to the experiments described in Example 6.4. Aβ1-42 oligomer binding to neurites was reduced by the anti-Aβ IgG4 monoclonal antibody. […] Green indicates staining with TuJ1, red indicates labeling with anti-Aβ (clone 6E10), and blue indicates staining with DAPI. […] Quantitative measures of fluorescence are shown for 30 min treatment and 18 h treatment (B). Mean results (±SEM) of two experiments are shown. […] Cortical cultures from P1 rats were treated as described for (A), except that Aβ1-42 tagged with HyLite Fluor-488 was used (C). Aβ1-42-labeled samples are shown in the upper panel and DAPI-stained samples are shown in the lower panel. […] Aβ1-42 fluorescence was quantified, with the mean (±SD) of the two independent experiments shown (D). […]
The intracellular accumulation of Aβ1-42 was determined in trypsin-cleared cells using an ELISA assay.
To measure intracellular Aβ1-42 accumulation by ELISA, primary cortical cultures were treated in 6-well cell-culture plates (Costar) after which they were washed and trypsin-cleared (Bateman et al., 2007) before lysis in cell-lysis buffer consisting of 50 mM Tris-HCl (pH 8.0), 150 mM NaCl, 5 mM EDTA, 1 mM sodium orthovanadate, 1% Triton X-100, and containing protease- and phosphatase-inhibitor cocktails. Protein concentration was determined by the BCA assay (Pierce). […]

[3] = tested on: mixed cortical cells from P1 rats; assay: Immunofluorescence of Aβ1-42 oligomer binding to neurons; assay type: cell-based, rat; settings: co-treatment, 30 min to 18 h
Experimental: FIG. 3 provides graphs and immunocytochemical images corresponding to the experiments described in Example 6.4. Aβ1-42 oligomer binding to neurites was reduced by the anti-Aβ IgG4 monoclonal antibody. […] Green indicates staining with TuJ1, red indicates labeling with anti-Aβ (clone 6E10), and blue indicates staining with DAPI. […] Quantitative measures of fluorescence are shown for 30 min treatment and 18 h treatment (B). Mean results (±SEM) of two experiments are shown. […] Cortical cultures from P1 rats were treated as described for (A), except that Aβ1-42 tagged with HyLite Fluor-488 was used (C). Aβ1-42-labeled samples are shown in the upper panel and DAPI-stained samples are shown in the lower panel. One representative experiment is shown. Aβ1-42 fluorescence was quantified, with the mean (±SD) of the two independent experiments shown (D). […]
Aβ peptides, especially aggregation intermediates (Bateman et al., 2007), are known to associate with various lipids and proteins present in cell membranes. […] This effect was readily apparent as early as 30 min (FIGS. 3A and 3B) and remained for at least 18 h of treatment (FIG. 3B).
Cells were grown on a glass coverslips. […] Fluorescence intensity was measured in cell bodies delineated by saturated epifluorescence pictures. […]

MABT: humanized anti-Aβ monoclonal antibody of IgG4 isotype, affinity matured and humanized form of mouse mMABT
release of TNFα by enriched microglia treated with Aβ1-42 oligomers (enriched microglia): greatest effect | neuronal morphology after Aβ1-42 treatment [1]: appeared similar to control cells | reduction of Aβ1-42 oligomer internalization (intracellular accumulation) [2]: more than 60% | interaction of Aβ1-42 oligomers with neurons [3]: blocked the interaction of Aβ1-42 oligomers with neurons
